The compounds below were run against T1, α-7 nicotinic acetylcholine receptor channel expressed in HEK 293 cells (Rattus norvegicus, UniProt Q05941) (assay: Ca2+-sensitive fluorescence-based FLIPR assay, α7 nicotinic ACh receptor channel function (agonist)). Settings: not given.
T1 construct: expressed in transfected cells
Type: cell-based
Procedure, shortened: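 Potency and efficacy derived from kinetic FLIPR Ca²⁺-flux fluorescence, recorded 3 min after compound addition in Hanks buffer following a 10 s baseline.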

T1 sequence (Q05941 23-502): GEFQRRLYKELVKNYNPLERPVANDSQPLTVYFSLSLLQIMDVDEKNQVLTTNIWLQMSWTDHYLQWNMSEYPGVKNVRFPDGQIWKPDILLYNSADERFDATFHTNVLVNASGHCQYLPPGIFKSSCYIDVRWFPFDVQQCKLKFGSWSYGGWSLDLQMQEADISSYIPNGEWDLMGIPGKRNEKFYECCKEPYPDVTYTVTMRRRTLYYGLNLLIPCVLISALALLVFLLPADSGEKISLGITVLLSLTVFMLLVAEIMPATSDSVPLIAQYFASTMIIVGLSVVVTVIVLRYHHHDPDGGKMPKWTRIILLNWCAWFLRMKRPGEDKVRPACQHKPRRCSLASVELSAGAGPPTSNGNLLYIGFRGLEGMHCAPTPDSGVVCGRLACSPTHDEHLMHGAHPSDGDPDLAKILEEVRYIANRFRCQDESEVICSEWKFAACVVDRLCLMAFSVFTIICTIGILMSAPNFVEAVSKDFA

SMILES	EC50 [nM]
c1coc(-c2nnc(NC3=NCC4(CN5CCC4CC5)O3)s2)c1 (stereo not drawn) [Example 60]	2550

Same assay, conditions: FLIPR α7 (EC50, nM), Table 1; HEK 293 cells, agonist Ca2+ flux

SMILES	EC50 [nM]
Cc1cccc2sc(NC3=NCC4(CN5CCC4CC5)O3)nc12 (single isomer, unassigned) [Example 6a]	4340
Cc1nc(NC2=NC[C@@]3(CN4CCC3CC4)O2)sc1C [Example 187]	424
COc1ccc(-c2csc(NC3=NCC4(CN5CCC4CC5)O3)n2)cc1 (single isomer, unassigned) [Example 20b]	318
c1ccc2c(c1)OCc1cnc(NC3=NC[C@@]4(CN5CCC4CC5)O3)nc1-2 [Example 196]	13
Cc1cc(Cl)c2nc(NC3=NCC4(CN5CCC4CC5)O3)sc2c1 (stereo not drawn) [Example 103]	280
COc1nccnc1NC1=NCC2(CN3CCC2CC3)O1 (racemic) [Example 120]	875

Same assay, conditions: FLIPR α7 (EC50, nM), Table Ib; HEK 293 cells, agonist Ca2+ flux

SMILES	EC50 [nM]
COc1cnc(NC2=NC[C@@]3(CN4CCC3CC4)O2)nc1Cl [Example 317, (R)—N-(4-Chloro-5-methoxypyrimidin-2-yl)-4H-1′-azaspiro[oxazole-5,3′-bicyclo[2.2.2]octan]-2-amine]	660

Same assay, conditions: FLIPR α7 activity rating (EC50, nM), Table 1; HEK 293 cells, agonist Ca2+ flux

SMILES	EC50 [nM]
Cc1ccc2nc(NC3=NCC4(CN5CCC4CC5)O3)nn2c1 (stereo not drawn) [Example 74]	< 100
Cc1cccc2sc(NC3=NCC4(CN5CCC4CC5)O3)nc12 (single isomer, unassigned) [Example 6b]	< 100
Clc1ccc2c(NC3=NC[C@@]4(CN5CCC4CC5)O3)n[nH]c2c1 [Example 134]	< 100
c1csc(-c2cc(NC3=NC[C@@]4(CN5CCC4CC5)O3)n[nH]2)c1 [Example 143]	100 to 1000
COc1ccc2ncc(NC3=NC[C@@]4(CN5CCC4CC5)O3)nc2c1 [Example 241, (R)—N-(7-methoxyquinoxalin-2-yl)-4H-1′-azaspiro[oxazole-5,3′-bicyclo[2.2.2]octan]-2-amine]	1000 to 100000
Cc1cnc(NC2=NC[C@@]3(CN4CCC3CC4)O2)nc1-c1ccccc1 [Example 191]	< 100
COc1cc2nc(NC3=NCC4(CN5CCC4CC5)O3)sc2cc1OC (stereo not drawn) [Example 55]	1000 to 100000
COc1cccc(-c2csc(NC3=NC[C@@]4(CN5CCC4CC5)O3)n2)c1 [Example 173]	100 to 1000
c1ccc2c(NC3=NC[C@@]4(CN5CCC4CC5)O3)nccc2c1 [Example 146]	100 to 1000
Clc1ccc2oc(NC3=NC[C@@]4(CN5CCC4CC5)O3)nc2c1 [Example 289, (R)—N-(5-Chlorobenzo[d]oxazol-2-yl)-4H-1′-azaspiro[oxazole-5,3′-bicyclo[2.2.2]octan]-2-amine]	< 100
COc1ccc(NC2=NCC3(CN4CCC3CC4)O2)nn1 (racemic) [Example 116]	1000 to 100000
c1ccc(-c2ccc(NC3=NC[C@@]4(CN5CCC4CC5)O3)nc2)cc1 [Example 207]	100 to 1000
Cc1cccc2sc(NC3=NCC4(CN5CCC4CC5)O3)nc12 (single isomer, unassigned) [Example 6a]	1000 to 100000
c1ccc(-c2ccnc(NC3=NC[C@@]4(CN5CCC4CC5)O3)n2)nc1 [Example 192]	100 to 1000
Clc1ccc2nc(NC3=NCC4(CN5CCC4CC5)O3)sc2c1 (single isomer, unassigned) [Example 9b, N-(6-Chlorobenzo[d]thiazol-2-yl)-4H-1′-azaspiro[oxazole-5,3′-bicyclo[2.2.2]octan]-2-amine]	< 100
COc1ccc2nc(NC3=NCC4(CN5CCC4CC5)O3)sc2n1 (single isomer, unassigned) [Example 2a]	1000 to 100000
COc1ncc(-c2cc(NC3=NC[C@@]4(CN5CCC4CC5)O3)ncn2)cn1 [Example 245, (R)—N-(2′-Methoxy-4,5′-bipyrimidin-6-yl)-4H-1′-azaspiro[oxazole-5,3′-bicyclo[2.2.2]octan]-2-amine]	< 100
FC(F)Oc1ccc2nc(NC3=NC[C@@]4(CN5CCC4CC5)O3)sc2n1 [Example 32, (R)—N-(5-(Difluoromethoxy)thiazolo[5,4-b]pyridin-2-yl)-4H-1′-azaspiro[oxazole-5,3′-bicyclo[2.2.2]octan]-2-amine]	100 to 1000
Cc1nc(NC2=NC[C@@]3(CN4CCC3CC4)O2)sc1C [Example 187]	100 to 1000
c1coc(-c2nnc(NC3=NCC4(CN5CCC4CC5)O3)s2)c1 (stereo not drawn) [Example 60]	1000 to 100000
COc1ccc(-c2cc(NC3=NC[C@@]4(CN5CCC4CC5)O3)n[nH]2)cc1 [Example 162]	1000 to 100000
O=C1Cc2cc(NC3=NCC4(CN5CCC4CC5)O3)ccc2N1 (stereo not drawn) [Example 86]	1000 to 100000

SMILES	EC50 [nM]
Cc1nsc(NC2=NC[C@@]3(CN4CCC3CC4)O2)n1 [Example 259, (R)—N-(3-Methyl-1,2,4-thiadiazol-5-yl)-4H-1′-azaspiro[oxazole-5,3′-bicyclo[2.2.2]octan]-2-amine]	1000 to 100000
c1ccc2c(c1)OCc1cnc(NC3=NC[C@@]4(CN5CCC4CC5)O3)nc1-2 [Example 196]	< 100
CCOc1ccc2nc(NC3=NCC4(CN5CCC4CC5)O3)sc2c1 (stereo not drawn) [Example 11, N-(6-Ethoxybenzo[d]thiazol-2-yl)-4H-1′-azaspiro[oxazole-5,3′-bicyclo[2.2.2]octan]-2-amine]	100 to 1000
COc1cncc(NC2=NCC3(CN4CCC3CC4)O2)n1 (racemic) [Example 118]	1000 to 100000
c1ccc(Oc2cc(NC3=NC[C@@]4(CN5CCC4CC5)O3)ncn2)cc1 [Example 240, (R)—N-(6-Phenoxypyrimidin-4-yl)-4H-1′-azaspiro[oxazole-5,3′-bicyclo[2.2.2]octan]-2-amine]	100 to 1000
CC(C)Oc1cnc(NC2=NC[C@@]3(CN4CCC3CC4)O2)cn1 [Example 216]	1000 to 100000
Cc1cc(Cl)c2nc(NC3=NCC4(CN5CCC4CC5)O3)sc2c1 (stereo not drawn) [Example 103]	100 to 1000
COc1ccc2nc(NC3=NCC4(CN5CCC4CC5)O3)sc2n1 (racemic) [Example 2, N-(5-Methoxythiazolo[5,4-b]pyridin-2-yl)-4H-1′-azaspiro[oxazole-5,3′-bicyclo[2.2.2]octan]-2-amine]	100 to 1000
COc1nccnc1NC1=NCC2(CN3CCC2CC3)O1 (racemic) [Example 120]	100 to 1000
c1cnnc(NC2=NCC3(CN4CCC3CC4)O2)c1 (racemic) [Example 115]	1000 to 100000
COc1ccc(-c2csc(NC3=NCC4(CN5CCC4CC5)O3)n2)cc1 (racemic) [Example 20, N-(4-(4-Methoxyphenyl)thiazol-2-yl)-4H-1′-azaspiro[oxazole-5,3′-bicyclo[2.2.2]octan]-2-amine]	100 to 1000
FC(F)(F)c1ccc2c(NC3=NC[C@@]4(CN5CCC4CC5)O3)n[nH]c2c1 [Example 164]	100 to 1000
Cc1cnc(NC2=NC[C@@]3(CN4CCC3CC4)O2)nc1C [Example 40, (R)—N-(4,5-Dimethylpyrimidin-2-yl)-4H-1′-azaspiro[oxazole-5,3′-bicyclo[2.2.2]octan]-2-amine]	< 100
c1ccc(-c2cc(NC3=NC[C@@]4(CN5CCC4CC5)O3)ccn2)cc1 [Example 29, (R)—N-(2-Phenylpyridin-4-yl)-4H-1′-azaspiro[oxazole-5,3′-bicyclo[2.2.2]octan]-2-amine]	100 to 1000
c1cnc2nc(NC3=NC[C@@]4(CN5CCC4CC5)O3)oc2c1 [Example 290, (R)—N-(Oxazolo[4,5-b]pyridin-2-yl)-4H-1′-azaspiro[oxazole-5,3′-bicyclo[2.2.2]octan]-2-amine]	< 100
Cc1nnc(NC2=NC[C@@]3(CN4CCC3CC4)O2)nc1C [Example 182]	100 to 1000
Cc1sc2ncnc(NC3=NC[C@@]4(CN5CCC4CC5)O3)c2c1C [Example 167]	1000 to 100000
Fc1cc(Cl)cnc1NC1=NC[C@@]2(CN3CCC2CC3)O1 [Example 284, (R)—N-(5-Chloro-3-fluoropyridin-2-yl)-4H-1′-azaspiro[oxazole-5,3′-bicyclo[2.2.2]octan]-2-amine]	< 100
Cc1nnc(NC2=NC[C@@]3(CN4CCC3CC4)O2)o1 [Example 258, (R)—N-(5-Methyl-1,3,4-oxadiazol-2-yl)-4H-1′-azaspiro[oxazole-5,3′-bicyclo[2.2.2]octan]-2-amine]	1000 to 100000
CN(C)c1ncc2nc(NC3=NC[C@@]4(CN5CCC4CC5)O3)sc2n1 [Example 269, (R)—N^5,N^5-dimethyl-N^2-(4H-1′-azaspiro[oxazole-5,3′-bicyclo[2.2.2]octane]-2-yl)thiazolo[5,4-d]pyrimidine-2,5-diamine]	1000 to 100000
c1nc2ccc(NC3=NCC4(CN5CCC4CC5)O3)cc2s1 (stereo not drawn) [Example 72]	1000 to 100000

Same assay, conditions: FLIPR α7 activity rating (EC50, nM), Table Ib; HEK 293 cells, agonist Ca2+ flux

SMILES	EC50 [nM]
Fc1cc(F)c2cnc(NC3=NC[C@@]4(CN5CCC4CC5)O3)cc2c1 [Example 318, (R)—N-(6,8-Difluoroisoquinolin-3-yl)-4H-1′-azaspiro[oxazole-5,3′-bicyclo[2.2.2]octan]-2-amine]	< 100
Fc1cccc2cnc(NC3=NC[C@@]4(CN5CCC4CC5)O3)cc12 [Example 345, (R)—N-(5-Fluoroisoquinolin-3-yl)-4H-1′-azaspiro[oxazole-5,3′-bicyclo[2.2.2]octan]-2-amine]	< 100
Fc1ccc(-c2cc(NC3=NC[C@@]4(CN5CCC4CC5)O3)ncn2)cc1 [Example 314, (R)—N-(6-(4-Fluorophenyl)pyrimidin-4-yl)-4H-1′-azaspiro[oxazole-5,3′-bicyclo[2.2.2]octan]-2-amine]	< 100
COc1cnc(NC2=NC[C@@]3(CN4CCC3CC4)O2)nc1Cl [Example 317, (R)—N-(4-Chloro-5-methoxypyrimidin-2-yl)-4H-1′-azaspiro[oxazole-5,3′-bicyclo[2.2.2]octan]-2-amine]	100 to 1000
O=[N+]([O-])c1ccc(-c2ccnc(NC3=NC[C@@]4(CN5CCC4CC5)O3)c2)cn1 [Example 305, (R)—N-(6-Nitro-3,4′-bipyridin-2′-yl)-4H-1′-azaspiro[oxazole-5,3′-bicyclo[2.2.2]octan]-2-amine]	< 100
Cc1nc(NC2=NC[C@@]3(CN4CCC3CC4)O2)cc2ccc(F)cc12 [Example 327, (R)—N-(7-Fluoro-1-methylisoquinolin-3-yl)-4H-1′-azaspiro[oxazole-5,3′-bicyclo[2.2.2]octan]-2-amine]	100 to 1000
COc1ccc2nc(NC3=NC[C@@]4(CN5CCC4CC5)O3)oc2c1 [Example 337, (2R)—N-(6-Methoxy-1,3-benzoxazol-2-yl)-4′H-spiro[4-azabicyclo[2.2.2]octane-2,5′-[1,3]oxazol]-2′-amine]	100 to 1000
Fc1ccc2cnc(NC3=NC[C@@]4(CN5CCC4CC5)O3)nc2c1 [Example 321, (R)—N-(7-Fluoroquinazolin-2-yl)-4H-1′-azaspiro[oxazole-5,3′-bicyclo[2.2.2]octan]-2-amine]	< 100

Same assay, conditions: read-out: FLIPR α7 activity rating (EC50); Table 1; HEK 293 cells, agonist Ca2+ flux

SMILES	EC50 [nM]
COc1ccc(-c2csc(NC3=NCC4(CN5CCC4CC5)O3)n2)cc1 (single isomer, unassigned) [Example 20b]	100 to 1000
